Here are results for 24 molecules from patent US9790221B2, “Heteroaryl compounds as IRAK inhibitors and uses thereof” (Merck Patent GmbH, priority 2014, dated 2017).

Test [1] has as its target IRAK1 (His-TEV-IRAK1 (194-712)) (Homo sapiens (Human), UniProt P51617). The experiment in a line: IRAK1 enzymatic assay. The test is classed as biochemical. The method in brief: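 Compounds ([…] down to 1 nM) were incubated 3 h at 30° C with His-TEV-IRAK1 (194-712, 15 ng/well) and 1 μM [33P]-labelled ATP in 50 mM Hepes pH 7.0, 10 mM MgCl2. After EDTA stop and washing, the retained autophosphorylation signal was measured by scintillation in streptavidin-coated plates.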

Test [2] relates to TLR7 induced IL-6 secretion in human mononuclear cells (PBMC's). The experiment in a line: TLR7 induced IL-6 in human PBMC's. Format: cell-based. Particulars: Homo sapiens, PBMC, read-out: TLR7 induced IL-6 secretion in hPBMC's (IC50). On the procedure:
TLR7 Induced IL-6 in Human PBMC's
Human PBMC assay was used as one of the functional assay a to monitor the activity of IRAK1 and IRAK4 small molecule inhibitors on TLR7 induced IL-6 secretion in human mononuclear cells (PBMC's). Human PBMCs were prepared from buffy coats (whole blood enriched with leukocytes and platelets) obtained from healthy volunteers used either fresh or frozen are plated in assay media (RPMI+2% P/S/L-glu+10% HI-FBS) and pre-treated with compounds in DMSO/media (range of concentrations from 25 uM to 0.4 nM) or controls (0.25% DMSO) for 30 minutes at 37° C. in assay media. Following pre-treatment with IRAK1 and IRAK4 inhibitors, PBMC's were stimulated with TLR7 specific ligand (2 uM) overnight (16-18 hrs) at 37° C. After incubation supernatant was transferred to 384 well PE AlphaPlate-384 (6005350) and IL-6 is quantified using Perkin Elmer IL-6 Alpha LISA kit (AL223C). Plates were read on an Envision® plate reader with Alpha Technology®.

A further test deals with IRAK4 (Homo sapiens (Human), UniProt Q9NWZ3). Put plainly: IRAK4 enzymatic assay. Format: biochemical. The procedure, abridged: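 Radiometric streptavidin FlashPlate read: 3 h, 30° C incubation of His-TEV-IRAK4 (20 ng/well), STK1-biotin substrate (300 nM) and ATP (2 μM, [^33P]-labelled) in Hepes pH 7.0, MgCl2 10 mM, MnCl2 5 mM. Compounds from 20 µM down to 1 nM, 2% DMSO controls; reaction quenched with EDTA.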

Structures are written as SMILES. Where a name gives a salt, the structure may show the parent alone.

IRAK4, sequence (Q9NWZ3 whole entry): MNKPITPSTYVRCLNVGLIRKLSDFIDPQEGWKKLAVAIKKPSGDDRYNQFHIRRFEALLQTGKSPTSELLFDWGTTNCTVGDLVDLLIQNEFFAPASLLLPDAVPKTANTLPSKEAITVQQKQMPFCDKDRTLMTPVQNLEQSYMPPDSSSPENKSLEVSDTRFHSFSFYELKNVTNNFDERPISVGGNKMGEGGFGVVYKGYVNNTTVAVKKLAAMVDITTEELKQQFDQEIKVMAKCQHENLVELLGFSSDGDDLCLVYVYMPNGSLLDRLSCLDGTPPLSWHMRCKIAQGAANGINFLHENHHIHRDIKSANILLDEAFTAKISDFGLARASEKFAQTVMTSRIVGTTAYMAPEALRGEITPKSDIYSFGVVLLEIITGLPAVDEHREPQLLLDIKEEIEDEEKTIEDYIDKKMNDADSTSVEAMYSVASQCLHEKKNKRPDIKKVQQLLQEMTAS
IRAK1 (His-TEV-IRAK1 (194-712)), sequence (P51617 194-712): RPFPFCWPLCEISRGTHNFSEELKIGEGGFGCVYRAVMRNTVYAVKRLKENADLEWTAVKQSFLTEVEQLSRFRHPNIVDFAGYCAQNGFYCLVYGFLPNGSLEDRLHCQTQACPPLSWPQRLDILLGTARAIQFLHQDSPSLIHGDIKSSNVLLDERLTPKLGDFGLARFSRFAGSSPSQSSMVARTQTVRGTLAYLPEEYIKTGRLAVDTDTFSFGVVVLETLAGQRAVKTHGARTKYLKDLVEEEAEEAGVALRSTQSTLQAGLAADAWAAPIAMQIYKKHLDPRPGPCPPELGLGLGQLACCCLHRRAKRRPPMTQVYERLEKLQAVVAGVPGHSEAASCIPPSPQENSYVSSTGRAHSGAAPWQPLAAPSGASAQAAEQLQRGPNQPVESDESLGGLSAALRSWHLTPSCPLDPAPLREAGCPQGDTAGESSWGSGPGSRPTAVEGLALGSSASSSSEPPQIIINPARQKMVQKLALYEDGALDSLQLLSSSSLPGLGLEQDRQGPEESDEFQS

By IC50 is commonly meant the concentration that gives 50% inhibition. Regarding `Cn1cc(-c2cccc(-c3ncc(-c4cnn(C)c4)c(N[C@H]4CCC[C@@H]4O)n3)c2)cn1` (racemic) [Example 94], the IC50 was 100 to 1000 nM in test [1], 1000 to 5000 nM in test [2] and less than 100 nM on IRAK4.

As for `Cn1cc(-c2cccc(-c3ncc(-c4ccn(C)n4)c(N[C@@H]4CC[C@H](N)C4)n3)c2)cn1` (racemic) [Example 107], the IC50 (in test [1]; in test [2]; on IRAK4) was 100 to 1000 nM each time.

As for `Cn1cc(-c2cccc(-c3ncc(-c4cnn(C)c4)c(N[C@@H]4CC[C@H](N)C4)n3)c2)cn1` (racemic) [Example 108], the values for the 50% inhibitory concentration (IC50) (in test [1]; in test [2]; at IRAK4) were 100 to 1000 nM, 100 to 1000 nM and less than 100 nM, respectively.

`Cn1cc(-c2cccc(-c3ncc(-c4cnn(C)c4)c(N[C@@H]4CNC[C@H]4O)n3)c2)cn1` (racemic) [Example 113]: the IC50 is 100 to 1000 nM in test [1], 1000 to 5000 nM in test [2] and less than 100 nM against IRAK4.

Regarding `Cn1cc(-c2cccc(-c3ncc(-c4ccn(C)n4)c(N[C@@H]4CCC[C@@H](O)[C@H]4O)n3)c2)cn1` (racemic) [Example 131], the figures for the IC50 (in test [1]; in test [2]; at IRAK4) were 1000 to 5000 nM, 1000 to 5000 nM and less than 100 nM, respectively.

Regarding `Cn1cc(-c2cccc(-c3ncc(-c4cnn(C)c4)c(N[C@@H]4CCC[C@@H](O)[C@H]4O)n3)c2)cn1` (racemic) [Example 133, (1R,2S,3R)-3-{5-(1-Methyl-1H-pyrazol-4-yl)-2-[3-(1-methyl-1H-pyrazol-4-yl)-phenyl]-pyrimidin-4-ylamino}-cyclohexane-1,2-diol], the figures for the IC50 (in test [1]; in test [2]; at IRAK4) were 100 to 1000 nM, 100 to 1000 nM and less than 100 nM, respectively.

Consider `Cn1cc(-c2cccc(-c3ncc(-c4cnn(C)c4)c(O[C@@H]4CCC[C@@H](N)[C@@H]4O)n3)c2)cn1` (racemic) [Example 134, (1S,2R,6R)-2-Amino-6-{5-(1-methyl-1H-pyrazol-4-yl)-2-[3-(1-methyl-1H-pyrazol-4-yl)-phenyl]-pyrimidin-4-yloxy}-cyclohexanol], for which the IC50 (in test [1]; in test [2]; against IRAK4) was less than 100 nM in each case.

In the case of `Cn1cc(-c2cccc(-c3ncc(-c4cnn(C)c4)c(N[C@H]4CCC[C@@H](O)C4)n3)c2)cn1` (racemic) [Example 161], the IC50 in test [1] was less than 100 nM; in test [2] it was 100 to 1000 nM; at IRAK4 it was less than 100 nM.

As for `Cn1cc(-c2cccc(-c3ncc(-c4cnn(C)c4)c(N[C@H]4CCC[C@H](O)C4)n3)c2)cn1` (racemic) [Example 162], the IC50 in test [1] was 100 to 1000 nM; in test [2], 100 to 1000 nM; against IRAK4, less than 100 nM.

For the molecule `Cn1cc(-c2cccc(-c3ncc(-c4cnn(C)c4)c(NC4CCC(O)C4)n3)c2)cn1` (racemic) [Example 167], the half-maximal inhibitory concentration (IC50) in test [1] is 1000 to 5000 nM; in test [2], 1000 to 5000 nM; against IRAK4, less than 100 nM.

Turning to `CN[C@H]1CCC[C@H](Nc2nc(-c3cccc(-c4cnn(C)c4)c3)ncc2-c2cnn(C)c2)[C@@H]1O` (racemic) [Example 281, (1R,2S,6S)-2-Methylamino-6-{5-(1-methyl-1-pyrazol-4-yl)-2-[3-(1-methyl-1H-pyrazol-4-yl)-phenyl]-pyrimidin-4-ylamino}-cyclohexanol], the results for the IC50 (in test [1]; in test [2]; on IRAK4) were more than 5000 nM, 1000 to 5000 nM and less than 100 nM, respectively.

As for `Cn1cc(-c2cccc(-c3ncc(-c4cnn(C)c4)c(N[C@H]4CCC[C@H](F)[C@H]4O)n3)c2)cn1` (single isomer, unassigned) [Example 285], the concentration for half-maximal inhibition (IC50) in test [1] was 100 to 1000 nM; in test [2], 100 to 1000 nM; on IRAK4, less than 100 nM.

With `Cn1cc(-c2cccc(-c3ncc(-c4cnn(C)c4)c(N[C@@H]4CCC[C@@H](F)[C@@H]4O)n3)c2)cn1` (single isomer, unassigned) [Example 286], the IC50 is 100 to 1000 nM in test [1], 100 to 1000 nM in test [2] and less than 100 nM on IRAK4.

With `Cn1cc(-c2cccc(-c3ncc(-c4cnn(C)c4)c(N[C@H]4CCCC[C@@H](O)[C@H]4O)n3)c2)cn1` (stereo in doubt) [Example 248], the figures for the IC50 (in test [1]; in test [2]; against IRAK4) were 100 to 1000 nM, 100 to 1000 nM and less than 100 nM, respectively.

As to `Cn1cc(-c2cccc(-c3ccc(-c4cnn(C5CCNCC5)c4)cn3)c2)cn1` [Example 1, 2-[3-(1-Methyl-1H-pyrazol-4-yl)-phenyl]-5-(1-piperidin-4-yl-1H-pyrazol-4-yl)-pyridine Hydrochloride], the results for the IC50 (in test [1]; in test [2]; against IRAK4) were more than 5000 nM, 1000 to 5000 nM and 100 to 1000 nM, respectively.

Consider `Cn1cc(-c2cccc(-c3ncc(-c4cnn(C)c4)c(NCC4CCNCC4)n3)c2)cn1` [Example 7, {5-(1-Methyl-1H-pyrazol-4-yl)-2-[3-(1-methyl-1H-pyrazol-4-yl)-phenyl]-pyrimidin-4-yl}-piperidin-4-ylmethyl-amine], for which the IC50 is 100 to 1000 nM in test [1], 1000 to 5000 nM in test [2] and 100 to 1000 nM at IRAK4.

On to `Cn1cc(-c2cccc(-c3ncc(-c4cnn(C)c4)c(OCC4(C)COC4)n3)c2)cn1` [Example 9, 4-(3-Methyl-oxetan-3-ylmethoxy)-5-(1-methyl-1H-pyrazol-4-yl)-2-[3-(1-methyl-1H-pyrazol-4-yl)-phenyl]-pyrimidine], for which the IC50 in test [1] was 1000 to 5000 nM; in test [2], 1000 to 5000 nM; at IRAK4, 100 to 1000 nM.

For `Cn1cc(-c2cccc(-c3ncc(-c4ccn(C)n4)c(NCC4CCCNC4)n3)c2)cn1` (stereo not drawn) [Example 10, {5-(1-Methyl-1H-pyrazol-3-yl)-2-[3-(1-methyl-1H-pyrazol-4-yl)-phenyl]-pyrimidin-4-yl}-piperidin-3-ylmethyl-amine], the IC50 lay within 100 to 1000 nM in test [1], 1000 to 5000 nM in test [2] and 100 to 1000 nM on IRAK4.

As for `Cn1cc(-c2cccc(-c3ncc(-c4cnn(C)c4)c(OCC4COC4)n3)c2)cn1` [Example 11, 5-(1-Methyl-1H-pyrazol-4-yl)-2-[3-(1-methyl-1H-pyrazol-4-yl)-phenyl]-4-(oxetan-3-ylmethoxy)-pyrimidine], the IC50 in test [1] is more than 5000 nM; in test [2], 1000 to 5000 nM; at IRAK4, 100 to 1000 nM.

As for `Cn1cc(-c2cccc(-c3ncc(-c4cnn(C)c4)c(NCC4CCOCC4)n3)c2)cn1` [Example 13, {5-(1-Methyl-1H-pyrazol-4-yl)-2-[3-(1-methyl-1H-pyrazol-4-yl)-phenyl]-pyrimidin-4-yl}-(tetrahydro-pyran-4-ylmethyl)-amine], the IC50 in test [1] fell in the range of 100 to 1000 nM; in test [2], 1000 to 5000 nM; against IRAK4 it was 100 to 1000 nM.

For `Cc1nnc(-c2cnc(-c3cccc(-c4cnn(C)c4)c3)nc2NC(C)C)s1` [Example 15, Isopropyl-[2-[3-(1-methyl-1H-pyrazol-4-yl)-phenyl]-5-(5-methyl-[1,3,4]thiadiazol-2-yl)-pyrimidin-4-yl]-amine], the values for the IC50 (in test [1]; in test [2]; against IRAK4) were 100 to 1000 nM, 100 to 1000 nM and less than 100 nM, respectively.

Regarding `Cn1cc(-c2cccc(-c3ncc(-c4ccn(C)n4)c(O[C@@H]4CCC[C@@H](N)[C@@H]4O)n3)c2)cn1` [Example 132], the IC50 in test [1] and in test [2] was 100 to 1000 nM in each case.

On to `Cc1nnc(-c2cnc(-c3cccc(-c4cnn(C)c4)c3)nc2NC2CCN(S(C)(=O)=O)CC2)s1` [Example 151], for which the IC50 in test [1] and in test [2] was 100 to 1000 nM in each case.

Consider `Cn1cc(-c2cccc(-c3ncc(-c4cnn(C)c4)c(N[C@H]4CCN(S(C)(=O)=O)C4)n3)c2)cn1` [Example 170], for which the values for the half-maximal inhibitory concentration (IC50) in test [1] and in test [2] were 100 to 1000 nM and 1000 to 5000 nM, respectively.
